Results reported in patent US20160151458A1, “Use Of Unacylated Ghrelin, Fragments And Analogs Thereof As Antioxidant” (ALIZE PHARMA SAS, priority 2013, published 2016).
Ends that are not written are not given here. * marks the point of attachment. Octanoyl = CCCCCCCC(=O)*

Legend:
primary SCs = test: In-vitro ischemia of primary SCs from normo-perfused muscles; type: cell-based, C57BL/6J mice; settings: SB202190 1 μmol/L added
Method: (§1) SCs were isolated from gastrocnemius muscles of C57BL/6J wild type mice subjected to ischemia or C57BL/6J mice lacking the GHSR1a and ghrelin genes (10 mice, kind gift of Professor M. Tschöp)^39. To obtain SCs, muscle samples were subjected to enzymatic digestion as described^45. In selected experiments, SCs were recovered from normo-perfused muscles and subjected to in-vitro ischemia in presence of saline, AG (1 μmol/L) or UAG (1 μmol/L). In-vitro ischemia was induced by incubating cells in DMEM+2% FCS at 5% CO2/95% N2 humidified atmosphere, yielding 1% O2 concentrations for 24 h^18. The in-vitro ischemia was also performed in the presence of SB202190 (1 μmol/L).
(§2) SC cell-cycle progression was evaluated by evaluating the percentage of PCNA-positive cells or by FACS analysis as previously described^46. The percentage of cells in each cell cycle phase was determined by ModFit LT software (Verity Software House. Inc, topsham, ME, USA). Celss proliferation was also assayed by evaluating the percentage of PCNA-positive cells by FACS analysis.
(§3) Cells were lysed and protein detection was obtained as previously described^47. Cells were lysed (50 mmol/L Tris HCl [pH 8.3], 1% Triton X-100, 10 mmol/L PMSF, 100 U/ml aprotinin, 10 μmol/L leupeptin) and protein concentrations were obtained as previously described^47. […] Densitometric analysis was used to calculate the differences in the fold induction of protein levels and normalized to tubulin, a actin or p38MAPK content. Values are reported as relative amount
(§4) Intracellular ROS production was evaluated using DCF-DA (5-(and-6)-carboxy-2′,7′-dichlorofluorescein diacetate, […] final concentration) (Molecular Probe, Invitrogen) assay as previously described^23. The formation of TBARS was determined in muscles using the OXI-TEK kit (ZeptoMetrix Corp.) and a luminescence spectrometer (Bio-Rad Laboratories, Hercules, Calif.) with excitation set at 530 nm, emission at 550 nm to measure in-vivo oxidative stress levels^33.
Total RNA was isolated using TRIzol reagent (Invitrogen) from SCs recovered from muscles of treated animals or from SCs subjected to in-vitro ischemia. miR-221/222 expression was evaluated by qRT-PCR as previously described^48. Loss-of-function experiments were performed in SCs transfected for 48 h with anti-miRNA negative control, anti-miR-221/222 antagonists (Applied Biosystem, Foxter Cyto CA, USA), according to the manufacturer's instructions^48.

[1] = system: unilateral hind limb ischemia in C57BL/6J mice (ischemic gastrocnemius muscle); test: Murine hind-limb ischemia model; type: in vivo
Method: Male C57BL/6J mice (Charles River Lab., Wilmington, Mass., USA) were anesthetized and unilateral hind limb ischemia was induced as described^42. The normo-perfused contralateral limb of each mouse was used as an internal control. After hind-limb ischemia, animals (18 mice per group) were treated by intra-peritoneal injection daily from 0 to day 21 with either saline, AG (100 μg/kg) or UAG (100 μg/kg). In selected experiments, mice received intramuscular injections of pre-miR oligonucleotides (5 mice/group). To induce toxic damage, 100 μl of 1% barium chloride (BaCl2, Sigma Aldrich) was injected unilaterally into the hind limb (9 mice). Mice were treated according to European Guidelines and policies as approved by the University of Turin Ethical Committee.
Semiquantitative estimation (by repeated measures analyzed with ANOVA and Newman-Keuls Multiple Comparison test) of foot damage was performed serially using the following classification: 3=dragging of foot (foot necrosis), 2=no dragging but no plantar flexion (foot damage), 1=plantar flexion but no toe flexion (toe damage), and 0=flexing the toes to resist gentle traction on the tail (no damage)^43.
Gastrocnemius muscle sections from ischemic or normo-perfused limbs were stained with hematoxylin and eosin for histological analysis. The proportion of fibers with central nuclei (regenerating fibers) was measured by MetaMorph software (Life Sciences Research Imaging Systems) in the injured area and the cross-sectional areas of the fibers in the injured and non-injured areas. For IF analysis, muscle sections were processed as described previously^44. The number of cells expressing the indicated markers or CD31 positive vessels was evaluated as previously described^34.
as §4

SCs from double KO mice = test: In-vitro ischemia of SCs from double KO mice lacking the GHSR1a and ghrelin genes; type: cell-based, C57BL/6J mice lacking the GHSR1a and ghrelin genes
Method: as §1, §2, §3, §4

[2] = system: glucose, insulin and lipid metabolisms; settings: cited from earlier work; for retention of the activity of UAG full length: U.S. Pat. Nos. 8,222,217 and 8,318,664; for smallest fragment retaining UAG activity: earlier patents
[3] = system: C2C12 mouse muscular cell line; test: ROS production (DCF-DA) in C2C12 cells under oxidative stress; type: cell-based; settings: 1 μmol/L; stress by hypoxia (1% O2), AGEs, hyperglycemia (25 mM) or H2O2; FIG. 8
Method: Kinetic analysis of ROS production was evaluated by using DCF-DA (5-(and-6)-carboxy-2′,7′-dichlorofluorescein diacetate, 0.5 μmol/L final concentration) (Molecular Probe, Invitrogen) assay. C2C12 cells were cultured with 400 μg/ml Advanced Glycated End-product (AGE) or 25 mM glucose (high glucose HG) for 48 h, H2O2 (100 μM) for 2 h. In parallel experiments C2C12 cells were subjected to hypoxia (DMEM+2% FCS in a 5% CO2-95% N2 humidified atmosphere, yielding to 1% O2 concentrations for 24 h). UAG (1 μmol/L) AZP 531 (1 μmol/L) or AZP-502 (1 μmol/L) was added where indicated.

Molecule: Oc1ccc(-c2nc(-c3ccncc3)c(-c3ccc(F)cc3)[nH]2)cc1 [SB202190, reference compound]
- cell-cycle entry of SCs exposed to UAG (primary SCs; FIG. 5E): blocked cell-cycle entry
- MyoD and myogenin expression in SCs exposed to UAG (primary SCs; FIG. 5F): prevented MyoD and myogenin expression

Molecule: AG: 28 amino acid peptide with an n-octanoyl modification on the Ser3 residue; endogenous ligand of GHSR-1a (GSS(Octanoyl)FLSPEHQRVQQRKESKKPPAKLQPR; UniProt Q9UBU3 24-51, looked up) [reference compound]
- protection against ischemia-induced damage (overall in vivo effect) ([1]; 100 μg/kg i.p. daily): failure to detect in vivo effects
- foot damage (functional score) ([1]; 100 μg/kg i.p. daily from day 0, FIG. 1A): significantly higher
- capillary density, ischemic vs contralateral control muscles of the same animals ([1]; 100 μg/kg i.p. daily, FIG. 1B): significantly lower capillary density than in contralateral control muscles
- concentration of TBARS in ischemic muscles ([1]; FIG. 3A): Significant increases in the concentration of TBARS
- SC cell-cycle progression (SCs from double KO mice; FIG. 5G): only UAG
- p-p38/MAPK, Pax-7, MyoD, Myf5 and myogenin expression (SCs from double KO mice; FIGS. 5H, 5I): only UAG

Molecule: EHQRVQ [UAG (8-13)]
- retention of the activity of UAG full length [2]: retain the activity of UAG full length on glucose, insulin and lipid metabolisms

Molecule: Glu-His-Gln-Arg (EHQR; listed as Homo sapiens) [UAG (8-11)]
- retention of the activity of UAG full length [2]: retain the activity of UAG full length on glucose, insulin and lipid metabolisms
- smallest fragment retaining UAG activity [2]: smallest UAG fragment to retain UAG activities

Molecule: Glu-His-Gln-Arg-Val (EHQRV; listed as Homo sapiens) [UAG (8-12)]
- retention of the activity of UAG full length [2]: retain the activity of UAG full length on glucose, insulin and lipid metabolisms

Molecule: His-Gln-Arg (HQR; listed as Homo sapiens) [UAG (9-11)]
- retention of the activity of UAG full length [2]: retain the activity of UAG full length on glucose, insulin and lipid metabolisms

Molecule: His-Gln-Arg-Val (HQRV; listed as Homo sapiens) [UAG (9-12)]
- retention of the activity of UAG full length [2]: retain the activity of UAG full length on glucose, insulin and lipid metabolisms
- smallest fragment retaining UAG activity [2]: smallest UAG fragment to retain the biological activity of UAG

Molecule: SPEHQRVQ [UAG (6-13)]
- protection against oxidative stress (ROS production) [3]: have a protective effect on C2C12 cells against oxidative stress
- retention of the activity of UAG full length [2]: retain the activity of UAG full length on glucose, insulin and lipid metabolisms

Molecule: Ser-Pro-Glu-His-Gln-Arg-Val-Gln (cycl) (SPEHQRVQ; also: cyclic, closure not given here; listed as Homo sapiens) [UAG(6-13)cyclic]
- protection against oxidative stress (ROS production) [3]: have a protective effect on C2C12 cells against oxidative stress
